Reference: patent publication US8367709B2, “Dipeptide analogs as coagulation factor inhibitors” (priority 2007, dated 2013)
Structures can show the parent of a compound that is named as a salt. Where two headings read alike, the source gives them in different places.

Molecular target: T1, purified human Factor XIa (Homo sapiens, UniProt P03951)
T1 construct: purchased Haematologic Technologies
Assay: Factor XIa assay (chromogenic substrate S-2366 hydrolysis, Ki)
Format: biochemical
Procedure: The effectiveness of compounds of the present invention as inhibitors of the coagulation factors XIa, VIIa, IXa, Xa, XIIa, plasma kallikrein or thrombin, can be determined using a relevant purified serine protease, respectively, and an appropriate synthetic substrate. The rate of hydrolysis of the chromogenic or fluorogenic substrate by the relevant serine protease was measured both in the absence and presence of compounds of the present invention. […] A decrease in the rate of absorbance or fluorescence change in the presence of inhibitor is indicative of enzyme inhibition. Such methods are known to one skilled in the art. The results of this assay are expressed as the inhibitory constant, Ki.
Values of Ki were determined by allowing the protease to react with the substrate in the presence of the inhibitor. Reactions were allowed to go for periods of 20-180 minutes (depending on the protease) and the velocities (rate of absorbance or fluorescence change versus time) were measured. The following relationships were used to calculate Ki values:
vs/vo=A+((B−A)/1+((IC50/(I)^n))) and […]

[1] = purified human Factor XIa 75-200 pM, substrate S-2366, 50 mM HEPES pH 7.4, read-out: Factor XIa Ki

T1 sequence (P03951 19-387): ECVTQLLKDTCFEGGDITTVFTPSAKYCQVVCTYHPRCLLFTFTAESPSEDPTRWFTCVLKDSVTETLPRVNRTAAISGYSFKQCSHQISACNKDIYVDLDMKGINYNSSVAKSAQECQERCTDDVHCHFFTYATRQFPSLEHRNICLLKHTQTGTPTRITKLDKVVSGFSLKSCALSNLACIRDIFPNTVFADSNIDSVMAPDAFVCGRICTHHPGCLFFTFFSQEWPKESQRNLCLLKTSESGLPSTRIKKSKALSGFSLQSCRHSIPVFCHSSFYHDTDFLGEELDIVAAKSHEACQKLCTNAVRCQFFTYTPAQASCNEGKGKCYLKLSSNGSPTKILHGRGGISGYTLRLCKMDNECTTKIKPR
T1 sequence (P03951 388-625): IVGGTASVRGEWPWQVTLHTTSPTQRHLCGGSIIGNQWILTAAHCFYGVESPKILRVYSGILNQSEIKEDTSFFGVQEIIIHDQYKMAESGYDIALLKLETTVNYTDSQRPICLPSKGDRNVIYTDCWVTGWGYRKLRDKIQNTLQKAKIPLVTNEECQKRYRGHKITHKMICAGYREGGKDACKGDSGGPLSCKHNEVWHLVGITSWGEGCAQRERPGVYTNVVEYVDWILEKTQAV

| Structure (SMILES) | Ki [1] | Ki |
| --- | --- | --- |
| Nc1n[nH]c2cc(NC(=O)[C@H](Cc3ccccc3)NC(=O)C[S+]([O-])c3cc(Cl)ccc3-n3cnnn3)ccc12 (single isomer, unassigned; isomer b) [Example 133] | 672 nM | – |
| CCOC(=O)Cc1ccc(NC(=O)[C@H](Cc2ccccc2)NC(=O)CCc2cc(Cl)ccc2-n2cnnn2)cc1 [Example 1, (S)-ethyl 2-(4-(2-(3-(5-chloro-2-(1H-tetrazol-1-yl)phenyl)propan-amideo)-3-phenylpropanamido)phenyl)acetate] | – | 140 nM |
| COC(=O)Nc1ccc(NC(=O)[C@H](Cc2ccccc2)NC(=O)/C=C/c2cc(Cl)ccc2-n2cnnn2)c(Cl)c1 [Example 14, (3-chloro-4-{(S)-2-[(E)-3-(5-chloro-2-tetrazol-1-yl-phenyl)-acryloylamino]-3-phenyl-propionylamino}-phenyl)-carbamic acid methyl ester] | 2960 nM | – |
| O=C(/C=C/c1c(F)ccc(Cl)c1F)N[C@@H](Cc1ccccc1)C(=O)Nc1ccc(C(=O)O)cc1 [Example 15, 4-{(S)-2-[(E)-3-(3-chloro-2,6-difluoro-phenyl)-acryloylamino]-3-phenyl-propionylamino}-benzoic acid] | – | 291 nM |
| O=C(/C=C/c1cc(Cl)ccc1-n1cnnn1)N[C@@H](Cc1ccccc1)C(=O)Nc1ncc(C(=O)O)s1 [Example 21, 2-{(S)-2-[(E)-3-(5-chloro-2-tetrazol-1-yl-phenyl)-acryloylamino]-3-phenyl-propionylamino}-thiazole-5-carboxylic acid] | 105 nM | – |
| O=C(/C=C/c1cc(Cl)ccc1-n1cnnn1)N[C@@H](Cc1ccccc1)C(=O)Nc1ccc2[nH]ncc2c1 [Example 30, (E)-3-(5-chloro-2-tetrazol-1-yl-phenyl)-N—[(S)-1-(1H-indazol-5-ylcarbamoyl)-2-phenyl-ethyl]-acrylamide] | 12.7 nM | – |
| O=C(/C=C/c1cc(Cl)ccc1-n1cnnn1)N[C@@H](Cc1ccccc1)C(=O)Nc1ccc2c(=O)[nH][nH]c(=O)c2c1 [Example 36, (E)-3-(5-chloro-2-tetrazol-1-yl-phenyl)-N—[(S)-1-(1,4-dioxo-1,2,3,4-tetrahydro-phthalazin-6-ylcarbamoyl)-2-phenyl-ethyl]-acrylamide] | 33.9 nM | – |
| O=C(/C=C/c1cc(Cl)ccc1-n1cnnn1)N[C@@H](Cc1cccc(F)c1)C(=O)Nc1ccc(-c2nnn[nH]2)cc1 [Example 43, (E)-3-(5-chloro-2-tetrazol-1-yl-phenyl)-N-{(S)-2-(3-fluoro-phenyl)-1-[4-(1H-tetrazol-5-yl)-phenylcarbamoyl]-ethyl}-acrylamide] | 1.61 nM | – |
| CN1CCN(C(=O)C[C@H](NC(=O)/C=C/c2cc(Cl)ccc2-n2cnnn2)C(=O)Nc2ccc(C(=O)O)cc2)CC1 [Example 45, 4-[(S)-2-[(E)-3-(5-chloro-2-tetrazol-1-yl-phenyl)-acryloylamino]-4-(4-methyl-piperazin-1-yl)-4-oxo-butyrylamino]-benzoic acid] | 33.4 nM | – |
| CC[C@H](NC(=O)/C=C/c1cc(Cl)ccc1-n1cnnn1)C(=O)Nc1ccc(NC(=O)OC)cc1 [Example 50, (4-{(S)-2-[(E)-3-(5-chloro-2-tetrazol-1-yl-phenyl)-acryloylamino]-butyrylamino}-phenyl)-carbamic acid methyl ester] | 1120 nM | – |
| C[C@H](NC(=O)/C=C/c1cc(Cl)ccc1-n1cnnn1)C(=O)Nc1ccc(CC(=O)O)cc1 [Example 51, (4-{(S)-2-[(E)-3-(5-chloro-2-tetrazol-1-yl-phenyl)-acryloylamino]-propionylamino}-phenyl)-acetic acid] | – | 317 nM |
| O=C(/C=C/c1cc(Cl)ccc1-n1cnnn1)N[C@@H](Cc1ccccc1)C(=O)Nc1ccc2c(c1)CCNC2 [Example 53, (E)-3-(5-chloro-2-tetrazol-1-yl-phenyl)-N—[(S)-2-phenyl-1-(1,2,3,4-tetrahydro-isoquinolin-6-ylcarbamoyl)-ethyl]-acrylamide] | 244 nM | – |
| O=C(/C=C/c1c(F)ccc(Cl)c1F)N[C@@H](Cc1ccccc1)C(=O)Nc1ccc2cn[nH]c2c1 [Example 57, (E)-3-(3-chloro-2,6-difluoro-phenyl)-N—[(S)-1-(1H-indazol-6-ylcarbamoyl)-2-phenyl-ethyl]-acrylamide] | – | 3570 nM |
| NCc1ccc(Cl)cc1/C=C/C(=O)N[C@@H](Cc1ccccc1)C(=O)Nc1ccc(C(=O)O)cc1 [Example 83, (S,E)-4-(2-(3-(2-(aminomethyl)-5-chlorophenyl)acrylamido)-3-phenylpropanamido)benzoic acid, TFA salt] | – | 63.9 nM |
| COC(=O)c1ccc2nc(NC(=O)[C@H](Cc3ccccc3)NC(=O)/C=C/c3cc(Cl)ccc3-n3cnnn3)nn2c1 [Example 92, (S,E)-methyl 2-(2-(3-(5-chloro-2-(1H-tetrazol-1-yl)phenyl)acrylamido)-3-phenylpropanamido)-[1,2,4]triazolo[1,5-a]pyridine-6-carboxylate] | – | 53.9 nM |
| O=C(/C=C/c1cc(Cl)ccc1-n1cnnn1)N[C@@H](Cc1ccccc1)C(=O)Nc1nc2ccc(F)cc2s1 [Example 97, (S,E)-3-(5-chloro-2-(1H-tetrazol-1-yl)phenyl)-N-(1-(6-fluorobenzo[d]thiazol-2-ylamino)-1-oxo-3-phenylpropan-2-yl)acrylamide] | 533 nM | – |
| O=C(/C=C/c1cc(Cl)ccc1-n1cnnn1)N[C@@H](Cc1ccccc1)C(=O)Nc1ccc(N2CCSCC2)cc1 [Example 99, (S,E)-3-(5-chloro-2-(1H-tetrazol-1-yl)phenyl)-N-(1-oxo-3-phenyl-1-(4-thiomorpholinophenylamino)propan-2-yl)acrylamide, TFA salt] | 1480 nM | – |
| COC(=O)c1ccc(NC(=O)[C@H](Cc2ccccc2)NC(=O)/C=C/c2cc(Cl)ccc2-n2cnnn2)nc1 [Example 103, (S,E)-methyl 6-(2-(3-(5-chloro-2-(1H-tetrazol-1-yl)phenyl)acrylamido)-3-phenylpropanamido)nicotinate, TFA salt] | 112 nM | – |
| COC(=O)Nc1ccc2c(c1)CCN(C(=O)[C@H](Cc1ccccc1)NC(=O)/C=C/c1cc(Cl)ccc1-n1cnnn1)C2 [Example 127, (S,E)-methyl 2-(2-(3-(5-chloro-2-(1H-tetrazol-1-yl)phenyl)acrylamido)-3-phenylpropanoyl)-1,2,3,4-tetrahydroisoquinolin-6-ylcarbamate] | – | 7800 nM |
| O=C(/C=C/c1cc(Cl)ccc1-n1cnnn1)N[C@@H](Cc1ccccc1)C(=O)Nc1ccc2c(c1)C(=O)NC2 [Example 129, (S,E)-3-(5-chloro-2-(1H-tetrazol-1-yl)phenyl)-N-(1-oxo-1-(3-oxoisoindolin-5-ylamino)-3-phenylpropan-2-yl)acrylamide] | 67.9 nM | – |
| O=C(/C=C/c1cc(Cl)ccc1-n1cnnn1)N[C@@H](Cc1ccccc1)C(=O)Nc1n[nH]c2ncccc12 [Example 137, (S,E)-N-(1-(1H-pyrazolo[3,4-b]pyridin-3-ylamino)-1-oxo-3-phenylpropan-2-yl)-3-(5-chloro-2-(1H-tetrazol-1-yl)phenyl)acrylamide, TFA salt] | 53.9 nM | – |
| O=C(/C=C/c1cc(Cl)ccc1-n1cnnn1)N[C@@H](Cc1ccccc1)C(=O)Nc1cccn2c(C(F)(F)F)nnc12 [Example 142, (S,E)-3-(5-chloro-2-(1H-tetrazol-1-yl)phenyl)-N-(1-oxo-3-phenyl-1-(3-(trifluoromethyl)-[1,2,4]-triazolo[4,3-a]pyridin-8-ylamino)propan-2-yl)acrylamide] | – | 3850 nM |
